Reference: patent US20180214428A1, “3-(1H-INDOL-2-YL)-1H-PYRAZOLO[3,4-B]PYRIDINES AND THERAPEUTIC USES THEREOF” (Samumed, LLC, priority 2015, published 2018)

What was measured:
IL-6 = IL-6 inhibition in LPS-stimulated THP-1 monocytes (HTRF); assay type: cell-based, human; details: Homo sapiens; THP-1 cells, 500 ng/mL LPS, 22 h, HTRF IL-6 readout; 10-point dose-response from 10 μM
Procedure, shortened: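 THP-1 cells serum-reduced (1% FBS, 24 h), then 5000 cells/well preincubated 2 h with compound (10-point 1:3 series from 10 μM, 0.1% DMSO) before 500 ng/mL LPS for 22 h at 37 °C. Secreted IL-6 quantified by HTRF 665/620 ratio; DMSO-normalised duplicates fitted to four-parameter EC50; above 10 μM, % inhibition at 10 μM given.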

[1] = system: primary human mesenchymal stem cells (hMSCs); assay: Induction of chondrogenesis in primary human mesenchymal stem cells; assay type: cell-based; details: Homo sapiens, Mesenchymal stem cells, 144 h, 6 days
Description: Representative compounds were screened using primary human mesenchymal stem cells (hMSCs) to determine their ability to induce chondrogenesis (process by which cartilage is developed).
Primary human mesenchymal stem cells (hMSCs) were purchased from Lonza (Walkersville, Md.) and expanded in Mesenchymal Stem Cell Growth Media (Lonza). Cells between passage 3 and 6 were used for the experiments.
Each compound was dissolved in DMSO as a 10 mM stock and used to prepare compound source plates. Serial dilution (1:3, 6-point dose-response curves from 2700 nM to 10 nM) and compound transfer was performed using the ECHO 550 (Labcyte, Sunnyvale, Calif.) into 96-well clear bottom assay plates (Greiner Bio-One) with appropriate DMSO backfill for a final DMSO concentration of 0.03%. hMSCs were plated at 20,000 cells/well in 250 μL/well Incomplete Chondrogenic Induction Medium (Lonza; DMEM, dexamethasone, ascorbate, insulin-transferrin-selenium [ITS supplement], gentamycin-amphotericin [GA-1000], sodium pyruvate, proline and L-glutamine). TGF-β3 (10 ng/mL) was used as a positive control for differentiation while negative control wells were treated with 75 nL DMSO for normalization and calculating EC50 values. Cells were incubated at 37° C. and 5% CO2 for 6 days. To image chondrogenic nodules, the cells were fixed using 4% formaldehyde (Electron Microscopy Sciences), and stained with 2 μg/mL Rhodamine B (Sigma-Aldrich) and 20 μM Nile Red (Sigma-Aldrich) [Johnson K., et. al, A Stem Cell-Based Approach to Cartilage Repair, Science, (2012). 336(6082), 717-721]. The nodules imaged (4 images per well at 4× magnification) by excitation at 531 nm and emission at 625 nm and quantified using the CellInsight CX5 (Thermo Scientific). Number of nodules in each well was normalized to the average of 3 DMSO treated wells on the same plate using Excel (Microsoft Inc.). The normalized averages (fold change over DMSO) of 3 replicate wells for each compound concentration were calculated. Due to solubility limitations of some of the compounds, curve fitting was incomplete leading to inaccurate EC50 determinations.
Using TGF-β3 as a positive control, the concentration of representative compounds required to induce 50% levels of chondrogenesis is reported. In addition, the maximum activity of each compound and the respective dose that each compound reached maximum chondrogenesis activity is reported.

EC50 (IL-6): 821 nM
EC50 ([1]; concentration required to induce 50% levels of chondrogenesis vs TGF-β3, read-out: Conc (nM) of 50% TGF-β3 activity): 10 nM
SMILES: c1ccc2[nH]c(-c3n[nH]c4ncc(-c5cncc(CN6CCCC6)c5)cc34)cc2c1 [Compound 240, 3-(1H-Indol-2-yl)-5-(5-(pyrrolidin-1-ylmethyl)pyridin-3-yl)-1H-pyrazolo[3,4-b]pyridine]
Emax ([1]; chondrogenic nodules, TGF-β3 (10 ng/mL) positive control, read-out: Max. Activity as % TGF-β3 activity): 98%
